# Data: patent US20230192764A1, “NOVEL DOPAMINE PRECURSORS” (Yissum Research Development Company of the Hebrew …, priority 2018, published 2023)
# Values joined by “and” are separate entries in the source; they are usually repeats but may differ in a detail not shown here. Equal entries are not always repeated.
# Columns and labels:
# [1] = tested on: human neuroblastoma cells (SH-SY5Y); assay: Viability of SH-SY5Y cells after auranofin (AuF) challenge, methylene blue staining; format: cell-based; conditions: SH-SY5Y pre-treated with 5 µM AuF 30 min, washed, compound added, viability 24 h later
# Experimental: Viability of cells pre-treated with 5 µM AuF for 30 min, washed and later exposed to increasing concentrations of SD-444, was determined 24 h later.
# A) The anti-apoptotic activity of SD-444 was tested on human neuronal cells SH-SY5Y. The cells were challenged by auranofin (AuF) that induces cellular stress by selectively blocking the thioredoxin reductase activity.
# SH-SY5Y cells were plated on 96-well plates and treated with AuF in different concentrations for 30 min. Then the cells were washed with PBS and treated as indicated. Twenty-four hours later, the cells were fixed with glutaraldehyde in final concentration of 0.5% for 10 min. Cells were washed 3 times with DDW dried overnight, and washed once with borate buffer (0.1 M, pH 8.5). The fixed cells were stained with 200 µl of 1% methylene blue dissolved in borate buffer for 1 h. After extensive washing and drying, the color was extracted with 200 µl of 0.1 M HCl for 1 h at 37° C. and absorbance was read in spectrophotometer at 630 nm.
# p38MAPK phosphorylation = assay: AuF-induced phosphorylation of p38MAPK in SH-SY5Y cells, western blot; format: cell-based, human
# Experimental: Cells were treated with 10 µM AuF with or without SD-444. Phosphorylation was determined by western blot analysis. The amount of each band was quantitated by densitometry and plotted with a linear regression program normalized with β catenin (b-cat).
# (§1) In the assay, twenty to thirty micrograms of protein samples were loaded on 10-12% SDS-PAGE gels. The proteins were then transferred electrophoretically to nitrocellulose (Whatman, Germany). The blots were blocked by incubation for 1 h at RT in TBS-T (25 mM Tris-HCl pH 7.4, 0.9% NaCl and 0.02% Tween-20) with 4% Difco skim milk (BD, USA), and incubated over-night at 4° C. with the primary antibody: p-p38^MAPK (Thr180/Tyr182), rabbit mAb; p38, rabbit Ab.
# JNK phosphorylation = assay: AuF-induced phosphorylation of JNK in SH-SY5Y cells, western blot; format: cell-based, human
# Experimental: SH-SY5Y cells were treated with 10 µM AuF with or without SD-444. Phosphorylation was determined by western blot analysis. The amount of each band was quantitated by densitometry and plotted with a linear regression program normalized to total JNK.
# as §1
# In the assay, twenty to thirty micrograms of protein samples were loaded on 10-12% SDS-PAGE gels. The proteins were then transferred electrophoretically to nitrocellulose (Whatman, Germany). The blots were blocked by incubation for 1h at RT in TBS-T (25 mM Tris-HCl pH 7.4, 0.9% NaCl and 0.02% Tween-20) with 4% Difco skim milk (BD, USA), and incubated over-night at 4° C. with the primary antibody: p-JNK^MAPK, and β-catenin.
# [2] = Body weight monitoring in rotenone-treated rats; format: in vivo, Sprague Dawley rats; conditions: for Weight: individual rat, listed as SD
# Experimental: (§2) 1-SD (Rotenone + SD); 2 - SDA (Rotenone + SDA); 3 - Control (Rotenone); 4 -Naive. The experimental groups were comprised of 6 animals for treated groups (1-3) and 2 animals in naive group (4). Rotenone was administrated 3.0 mg/kg intraperitoneally (IP) once a day in the morning (days 1-9). SD 33 mg/kg and SDA 33 mg/kg were administrated intraperitoneally once a day in the afternoon (days 1-9).
# Animals weight was measured before initiation of treatment (day 0), on days 4,7, 9 during the experiment and on termination day 11. On day 11, animals were sacrificed and brains were harvested for further histopathological analysis.
# (§3) IP administration: Rotenone was administrated to groups 1-3. Rotenone was injected intraperitoneally at a dose 3.0 mg/kg once a day in the morning (days 1-9). SD and SDA was administrated both at a dose of 33 mg/kg and were injected intraperitoneally once a day in the afternoon (days 1-9). Group number 4 was untreated, and remained as a naive group.
# [3] = tested on: Rotenone -induced model of Parkinson's disease (PD) in rats; assay: Rat rearing behavior (cylinder) test, rotenone model; format: in vivo, Sprague Dawley rats; conditions: for Cylinder rise and touch (number of rears in 2 min): individual rat, listed as SD
# Experimental: as §2
# (§4) Rearing behavior, rotarod and beam walk tests were performed before initiation of treatment (day 0) as well as on days 4, 8 and 10 of the experiment.
# as §3
# Animals were placed in a clear glass cylinder (40 cm high and 20 cm diameter) and number of rears in 2 min was observed. Rear was considered as animals raised their hands above the shoulder and made contact with the wall of cylinder with their forelimb.
# [4] = tested on: Rotenone -induced model of Parkinson's disease (PD) in rats; assay: Rotarod behavior assay, rotenone model; format: in vivo, Sprague Dawley rats; conditions: for R.R (rotarod): individual rat, listed as SD
# Experimental: as §2, §4, §3
# The test was used to evaluate motor coordination and balance. Apparatus was set to accelerate from 4 to 40 rpm in 300 s, and animals from same cage are placed in separate lanes on rod initially rotating at 4 rpm.
# [5] = tested on: Rotenone -induced model of Parkinson's disease (PD) in rats; assay: Rat beam walk test, rotenone model; format: in vivo, Sprague Dawley rats; conditions: for beam end time: individual rat, listed as SD
# Experimental: as §2, §4, §3
# Animals were gently placed on 1 m long narrow aluminum beam facing one of the ends and allowed to walk to the end of the beam.
# [6] = average n=6, day 0 (before treatment)
# [7] = day 0 (before treatment), rotenone 3 mg/kg + compound 33 mg/kg IP
# [8] = rats, rotenone 3.0 mg/kg IP + compound 33 mg/kg IP, days 1-9
structure (smiles),measurement,setting,value
"CC(=O)NC(CS)C(=O)NC(Cc1cccc(O)c1O)C(=O)NC(CS)C(N)=O (stereo not shown) [SD-444, Acetyle-Cys-2,3 dihydroxyphenylalanin-Cys- amide]",neuronal cell-viability after AuF,[1],partially restored
same,neuronal cell-viability after AuF,[1]; listed as SD,increase viability
same,concentration at which significant reduction in p38 activation is seen,"p38MAPK phosphorylation; 10 µM AuF, western blot",30 µM
same,p38 phosphorylation (AuF-triggered),p38MAPK phosphorylation; summary statement,inhibit
same,concentration at which significant reduction in JNK activation is seen,"JNK phosphorylation; 10 µM AuF, western blot",10 µM
same,JNK phosphorylation (AuF-triggered),JNK phosphorylation; summary statement,inhibit
same,"Weight, group average",[2]; [6],304.83 gr
same,"Weight, group average","[2]; average n=6, day 4",299.83 gr
same,"Weight, group average","[2]; average n=6, day 7",294.17 gr
same,"Weight, group average","[2]; average n=6, day 9",290.17 gr
same,"Weight, group average","[2]; average n=6, day 11",283.17 gr
same,Weight,[2]; [7],300 gr (2×) and 307 gr and 294 gr and 315 gr and 313 gr
same,Weight,"[2]; day 4, rotenone 3 mg/kg + compound 33 mg/kg IP",299 gr (2×) and 296 gr and 290 gr and 310 gr and 305 gr
same,Weight,"[2]; day 7, rotenone 3 mg/kg + compound 33 mg/kg IP",298 gr and 281 gr and 286 gr and 305 gr and 294 gr and 301 gr
same,Weight,"[2]; day 9, rotenone 3 mg/kg + compound 33 mg/kg IP",295 gr and 285 gr and 280 gr and 298 gr and 286 gr and 297 gr
same,Weight,"[2]; day 11, rotenone 3 mg/kg + compound 33 mg/kg IP",290 gr (2×) and 278 gr and 284 gr and 283 gr and 274 gr
same,"Cylinder rise and touch, group average",[3]; [6],12.33
same,"Cylinder rise and touch, group average","[3]; average n=6, day 4",14.00
same,"Cylinder rise and touch, group average","[3]; average n=6, day 8",12.33
same,"Cylinder rise and touch, group average","[3]; average n=6, day 10",13.00
same,Cylinder rise and touch (number of rears in 2 min),[3]; [7],13 (3×) and 8 and 18 and 9
same,Cylinder rise and touch (number of rears in 2 min),[3]; day 4,22 and 9 and 12 and 13 (2×) and 15
same,Cylinder rise and touch (number of rears in 2 min),[3]; day 8,9 and 10 (2×) and 18 and 15 and 12
same,Cylinder rise and touch (number of rears in 2 min),[3]; day 10,16 and 13 and 17 and 9 and 15 and 8
same,"Cylinder test, maintaining locomotor activity in Rotenone-treated rats",[3]; [8],very effective
same,"R.R (rotarod), group average",[4]; [6],283.33 s
same,"R.R (rotarod), group average","[4]; average n=6, day 4",275.00 s
same,"R.R (rotarod), group average","[4]; average n=6, day 8",256.67 s
same,"R.R (rotarod), group average","[4]; average n=6, day 10",240.50 s
same,R.R (rotarod),[4]; [7],274 s and 280 s and 288 s and 300 s and 291 s and 267 s
same,R.R (rotarod),[4]; day 4,280 sec and 268 sec and 300 sec (2×) and 247 sec and 255 sec
same,R.R (rotarod),[4]; day 8,249 s and 251 s and 282 s and 267 s and 254 s and 237 s
same,R.R (rotarod),[4]; day 10,248 s and 255 s and 258 s and 266 s and 224 s and 192 s
same,"rotarod test, motor dysregulation mediated by rotenone",[4]; [8],significantly reversed
same,"beam end time, group average",[5]; [6],11.33 s
same,"beam end time, group average","[5]; average n=6, day 4",20.17 s
same,"beam end time, group average","[5]; average n=6, day 8",22.00 s
same,"beam end time, group average","[5]; average n=6, day 10",22.67 s
same,beam end time,[5]; [7],10 sec (2×) and 19 sec and 5 sec and 8 sec and 16 sec
same,beam end time,[5]; day 4,31 s and 13 s and 15 s and 6 s and 38 s and 18 s
same,beam end time,[5]; day 8,23 s and 22 s and 18 s and 16 s and 21 s and 32 s
same,beam end time,[5]; day 10,43 s and 23 s and 17 s and 12 s and 27 s and 14 s
same,"Walk-beam test, reversal of rotenone induced imbalance",[5]; [8],very effective
